Measurements reported in article PMC5111108, “An insecticide resistance-breaking mosquitocide targeting inward rectifier potassium channels in vectors of Zika virus and malaria” (Scientific Reports, 2016).

System: honey bee, A. mellifera
Test: Acute topical toxicity to adult honey bees
Assay type: in vivo, Apis mellifera
Conditions: 1 mg per bee topical, 48 h
Experimental: Frames of late-stage honey bee (A. mellifera) pupae were taken from four colonies at The Ohio State University Honey Bee Lab in Wooster, OH and maintained in a dark humid incubator at 34 °C (Darwin Chambers Co., St. Louis, MO, model H024) until adult bees emerged. New adults were brushed from frames daily and placed in wooden screen cages (21 × 14 × 12 cm) provisioned with 1:1 (w/w) sucrose in water.
Acute toxicity experiments in adult bees were performed as follows. Twenty-four hours after emergence, adult honey bees in cages were anaesthetized with carbon dioxide, divided into groups of approximately 20 bees and placed in plastic-coated paper cups (177 cm^3; UNIQ Paper Yogurt Cup, Frozen Dessert Supplies, Gilbert, AZ) covered with cotton cheesecloth. […] As a positive control, some bees were treated with 3 μl of bifenthrin (0.1 μg/μl); negative controls consisted of bees treated with 3 μl of solvent. Applications were made using a 20 μl micropipette (Fisherbrand Finnpipette F2, Fisher Scientific, Pittsburgh, PA) with disposable plastic tips. After treatment, bees were returned to the paper cups and provided with sugar syrup in punctured 1.5 ml microcentrifuge tubes. […] Bees showing no movement on inspection at 48 h after treatment were scored as dead.

O=C(Cn1nc(C(F)(F)F)c2c1CCCC2)N1CCCc2ccccc21 [VU041, 1-(3,4-dihydroquinolin-1(2H)-yl)-2-(3-(trifluoromethyl)-4,5,6,7-tetrahydro-1H-indazol-1-yl)ethan-1-one]
honey bees alive: 91.3%
